Reference: ChEMBL document CHEMBL1141731, “Bioactive pyridoacridine alkaloids from the micronesian sponge Oceanapia sp” (J Nat Prod, 1998)
Values after ≈ are worked out from the molar mass of the structure shown. Active and inactive are the calls of the source. The calls are words filed in the database; no cut-off is given here.

Legend:
Spodoptera littoralis = assay: Insecticidal activity against Spodoptera littoralis larvae with artificial diet assessed survival after 6 days; type: functional; conditions: 144 h
[1] = Toxicity against Artemia salina after 24 hrs; type: organism-based; conditions: in vivo
MONO-MAC-6 = assay: Cytotoxicity against human MONO-MAC-6 cells assessed as incorporation of [3H]thymidine incorporation; type: functional, cell-based
Bacillus subtilis = assay: Antimicrobial activities activity against Bacillus subtilis 168 at 100ug/disk after 24 hrs by agar plate diffusion assay; type: functional, organism-based; conditions: subsp. subtilis str. 168
HeLa = assay: Cytotoxicity against human HeLa cells assessed as incorporation of [3H]thymidine incorporation; type: functional, cell-based
[2] = target: Adenosine receptor A2a (Rattus norvegicus) (UniProt P30543); assay: Displacement of [3H]CGS21680 from adenosine A2A receptor in rat brain striatal membrane at 25 uM; type: cell membranes
Rattus norvegicus [3] = species: Rattus norvegicus; assay: (§1) Displacement of [3H]diazepam from benzodiazepine binding site of GABAA receptor in rat brain cortical membrane; type: cell membranes
[4] = target: T1, Adenosine receptor A1 (Rattus norvegicus) (UniProt P25099); assay: Displacement of [3H]CHA from adenosine A1 receptor in rat brain cortical membrane at 25 uM; type: cell membranes
T1 sequence (whole entry): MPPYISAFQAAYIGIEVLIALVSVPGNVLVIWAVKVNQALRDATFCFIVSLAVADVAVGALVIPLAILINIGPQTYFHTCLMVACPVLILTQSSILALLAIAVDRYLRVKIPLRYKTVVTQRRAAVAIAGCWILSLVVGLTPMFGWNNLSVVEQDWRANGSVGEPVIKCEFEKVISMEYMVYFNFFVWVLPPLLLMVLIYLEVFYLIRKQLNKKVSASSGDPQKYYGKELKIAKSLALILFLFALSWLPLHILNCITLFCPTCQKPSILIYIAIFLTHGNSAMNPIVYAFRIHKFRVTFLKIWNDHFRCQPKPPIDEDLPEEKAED

Cladosporium cucumerinum = assay: Fungicidal activity against Cladosporium cucumerinum; type: functional, organism-based
Escherichia coli = assay: Antimicrobial activities activity against Escherichia coli ATCC 25922 at 100ug/disk after 24 hrs by agar plate diffusion assay; type: functional, organism-based
Rattus norvegicus [5] = species: Rattus norvegicus; assay: Displacement of [3H]diazepam from benzodiazepine binding site of GABAA receptor in rat brain cortical membrane at 25 uM; type: cell membranes
[6] = target: T1, Adenosine receptor A1 (Rattus norvegicus); assay: Displacement of [3H]CHA from adenosine A1 receptor in rat brain cortical membrane at 100 uM; type: cell membranes
Artemia salina = assay: Toxicity against Artemia salina at upto 100 ug/mL after 24 hrs; type: organism-based; conditions: in vivo
[7] = target: Adenosine receptor A2a (Rattus norvegicus) (UniProt P30543); assay: Displacement of [3H]CGS21680 from adenosine A2A receptor in rat brain striatal membrane at 100 uM; type: cell membranes
Adenosine receptor A1 = target: T2, Adenosine receptor A1 (Rattus norvegicus, UniProt P25099); assay: Displacement of [3H]CHA from adenosine A1 receptor in rat brain cortical membrane; type: cell membranes
T2 sequence (P25099 whole entry): T1 sequence (whole entry)

Adenosine receptor A2a = Adenosine receptor A2a (Rattus norvegicus, UniProt P30543); assay: Displacement of [3H]CGS21680 from adenosine A2A receptor in rat brain striatal membrane; type: cell membranes
[8] = as §1; type: cell membranes

Chain of Adenosine receptor A2a (Rattus norvegicus) (P30543 whole entry): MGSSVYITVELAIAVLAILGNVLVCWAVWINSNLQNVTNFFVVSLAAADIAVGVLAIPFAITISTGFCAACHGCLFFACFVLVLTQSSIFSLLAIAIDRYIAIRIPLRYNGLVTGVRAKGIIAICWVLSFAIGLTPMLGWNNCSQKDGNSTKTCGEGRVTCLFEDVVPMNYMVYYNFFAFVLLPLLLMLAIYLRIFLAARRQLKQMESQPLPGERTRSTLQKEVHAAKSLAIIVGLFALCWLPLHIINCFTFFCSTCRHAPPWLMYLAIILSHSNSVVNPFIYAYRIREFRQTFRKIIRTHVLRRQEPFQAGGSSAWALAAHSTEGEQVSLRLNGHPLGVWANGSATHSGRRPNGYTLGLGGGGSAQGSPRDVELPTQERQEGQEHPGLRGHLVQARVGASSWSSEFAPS
Chain of Adenosine receptor A2a (P30543 whole entry): as above

For `CCC(=O)NCCc1c2c3c(ccnc3c3ncsc13)-c1ccccc1N2` [KUANONIAMINE C], which LC50 (Spodoptera littoralis) is on record?
Its LC50 is 156 µg/mL (≈ 417 µM).

And the LC50 at 24 h [1]?
Its LC50 at 24 h is 37 µg/mL (≈ 98.8 µM).

What about the IC50 (MONO-MAC-6) of the same compound?
The IC50 was 1.2 µg/mL (≈ 3.2 µM).

And the Activity (Bacillus subtilis)?
Its Activity is “inactive”.

And the IC50 (HeLa)?
The IC50 was 5.1 µg/mL (≈ 13.6 µM).

And the Activity [2]?
The Activity was 43%.

What about the Activity (Rattus norvegicus [3]) of the same compound?
The Activity was “Active”.

What about the Activity [4] of the same compound?
Its Activity is 34%.

And the Activity (Cladosporium cucumerinum)?
Its Activity is “inactive”.

And the Activity (Escherichia coli)?
The Activity was “inactive”.

And the Activity (Rattus norvegicus [5])?
The Activity was 39%.

Which results are given for `NCCc1c2c3c(ccnc3c3ncsc13)-c1ccccc1N2`?
EC50 (Spodoptera littoralis; read-out: ED50 (the source's name)): 141 µg/mL (≈ 443 µM); IC50 (MONO-MAC-6): 2 µg/mL (≈ 6.28 µM); Activity (Bacillus subtilis): inactive; IC50 (HeLa): 1.2 µg/mL (≈ 3.77 µM); Activity (Rattus norvegicus [3]): Active; Activity [6]: 36%; Activity (Artemia salina): Non-toxic; Activity (Cladosporium cucumerinum): inactive; Activity (Escherichia coli): inactive; Activity (Rattus norvegicus [5]): 30%; Activity [7]: 46%

For `CC(=O)NCCc1c2c3c(ccnc3c3ncsc13)-c1ccccc1N2` [KUANONIAMINE D], which LC50 (Spodoptera littoralis) is on record?
Its LC50 is 59 µg/mL (≈ 164 µM).

And the LC50 at 24 h [1]?
The LC50 at 24 h was 19 µg/mL (≈ 52.7 µM).

And the IC50 (MONO-MAC-6)?
Its IC50 is 0.8 µg/mL (≈ 2.22 µM).

And the Activity (Bacillus subtilis)?
The Activity was “inactive”.

And the IC50 (HeLa)?
The IC50 was 1.4 µg/mL (≈ 3.88 µM).

And the Ki (Adenosine receptor A1)?
Its Ki is 2.94 µM.

What about the Activity [2] of the same compound?
The Activity was 56%.

And the Activity (Rattus norvegicus [3])?
Its Activity is “Active”.

And the Activity [4]?
Its Activity is 68%.

And the Activity (Cladosporium cucumerinum)?
The Activity was “inactive”.

And the Activity (Escherichia coli)?
The Activity was “inactive”.

What about the Activity (Rattus norvegicus [5]) of the same compound?
Its Activity is 32%.

And the Ki (Adenosine receptor A2a)?
Its Ki is 13.7 µM.

For `Cn1c(=O)c2c(ncn2C)n(C)c1=O` [CAFFEINE], which Ki [8] is on record?
The Ki was 376 µM.
